Data set [1] in a line: IV and PO pharmacokinetic studies of prodrug salts (Iab, Ibb, Icb) in the rat, with historical parent data. In kind it is in vivo, Sprague-Dawley rats. The note with it: for half-life: after IV prodrug, read-out: t1/2 (hr), IV (converted); for clearance / Vd: prodrug after IV administration; for clearance: read-out: CLtot (mL/min/kg), IV; for Vd: read-out: Vdss (L/kg), IV. In short, it runs like this:
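Male Sprague-Dawley rats (300-350 g, jugular-cannulated; fasted overnight for PO) received mono-lysine prodrug salts in distilled water: IV bolus over 0.5 min at 1.4 mg/kg free acid, PO gavage at 7.9 mg/kg (Iab) or 6.9 mg/kg (Icb) free acid, n=3. Plasma parameters by non-compartmental analysis; oral bioavailability from dose-normalized AUC ratio.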

A short description of data set [2]: Single-dose toxicokinetic and tolerability study of prodrugs in dogs. Type of data set: in vivo, dog. The note with it: for clinical signs, body weight and food consumption / emesis: oral prodrug. In outline: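 Female dogs (two/group) received prodrug Iab orally once daily at 24, 90 or 240 mg/kg (free acid) as aqueous solution or dry-filled capsules, one-week washouts between doses. Ibb and Icb given to one dog/sex/group as capsules, then aqueous 25 mg/kg or capsules 46 or 125 mg/kg BID. Clinical signs, body weight, food intake and plasma toxicokinetics monitored.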

The nature of a further data set: in vitro. Conditions: rat, serum.
A short description of data set [3]: Single-dose oral toxicokinetic study of prodrugs in rats. Type of data set: in vivo, rat. The note with it: for C24 h: mean; for Cmax / AUC / half-life: plasma. In short, it runs like this:
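Plasma levels of prodrug and parent IVa were measured per rat over one day after one oral gavage dose, given as a water solution to groups of three males. Free-acid doses: Icb 5/25/200, Ibb 19/64/236, Iab 16/72/267 mg/kg; for Iab these equal 13/57/211 mg/kg of IVa.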

[4] abbreviates: male, Sprague-Dawley, plasma, analyte = label.

Structures are written as SMILES. “Also recorded” adds a separate entry of the source. Structures can show the parent of a compound that is named as a salt. Where only a bound is given, the exact number is not on record here.

Experimental for in vitro: The stability of Iab was studied in fresh blood and serum from rat, dog, monkey and human (n=2). The blood was collected in vacutainers containing K2EDTA (Becton Dickinson, Franklin Lakes, N.J.). The serum was collected in vacutainers containing no anticoagulant. Iab was incubated at a starting concentration of approximately 10 μM for 60-90 min at 37° C. Serial samples were taken at the pre-determined times. Aliquots of blood samples (200 μL) were first mixed with 100 μL of water followed by 400 μL of acetonitrile. The serum samples (50 μL) were added into microtainers containing K2EDTA (Becton Dickinson, Franklin Lakes, N.J.) followed by the addition of 100 μL of acetonitrile. The supernatant was analyzed for both Iab and IVa by LC/MS/MS. The stability of Ibb was studied in fresh blood and serum from rat, dog, monkey and human (n=2). The blood was collected in vacutainers containing K2EDTA (Becton Dickinson, Franklin Lakes, N.J.). The serum was collected in vacutainers containing no anticoagulant. Ibb was incubated at a starting concentration of approximately 15 μM for 90 min at 37° C. Serial samples were taken at the pre-determined times. Aliquots of blood samples (200 μL) were first mixed with 100 μL of water followed by 400 μL of acetonitrile. The serum samples (50 μL) were added into microtainers containing K2EDTA (Becton Dickinson, Franklin Lakes, N.J.) followed by the addition of 100 μL of acetonitrile. […] The stability of Icb was studied in fresh blood and serum from rat, dog, monkey and human (n=2). The blood was collected in vacutainers containing K2EDTA (Becton Dickinson, Franklin Lakes, N.J.). The serum was collected in vacutainers containing no anticoagulant. Icb was incubated at a starting concentration of approximately 10 μM for 90 min at 37° C. Serial samples were taken at the pre-determined times. Aliquots of blood samples (200 μL) were first mixed with 100 μL of water followed by 400 μL of acetonitrile. The serum samples (50 μL) were added into microtainers containing K2EDTA (Becton Dickinson, Franklin Lakes, N.J.) followed by the addition of 100 μL of acetonitrile.

The term Cmax denotes the peak of the concentration-time curve. A word on the Tmax: it is the time at which the peak concentration occurs. `O=C(C(=O)N1CCN(C(=O)c2ccccc2)CC1)c1cn(COP(=O)(O)O)c2c(-n3ccnn3)ncc(F)c12` [Ibb, [3-[(4-benzoylpiperazin-1-yl)(oxo)acetyl]-4-fluoro-7-(1H-1,2,3-triazol-1-yl)-1H-pyrrolo[2,3-c]pyridin-1-yl]methyl dihydrogen phosphate, L-lysine salt (1:1)]: the “prodrug detected in plasma after oral administration” value in data set [1] (LLQ = 5 nM) is listed as under 10 nM. The half-life is 0.18 h in data set [1] (setting [4]); 78 min in data set [3] (male, Sprague Dawley, rat, po, 19 mg/kg, read-out: T1/2 (converted)); 276 min in data set [3] (male, Sprague Dawley, rat, po, 64 mg/kg, read-out: T1/2 (converted)); 216 min in data set [3] (male, Sprague Dawley, rat, po, 236 mg/kg, read-out: T1/2 (converted)). Also, the peak concentration (Cmax) turned out to be 8 ± 3 nM in data set [1] (male, Sprague-Dawley, plasma, po, 6.6 mg/kg, read-out: Cmax); 27 nM in data set [3] (male, Sprague Dawley, rat, po, 19 mg/kg); 140 nM in data set [3] (male, Sprague Dawley, rat, po, 64 mg/kg); 250 nM in data set [3] (male, Sprague Dawley, rat, po, 236 mg/kg). For the same compound, the Tmax in data set [1] (male, Sprague-Dawley, plasma, po, 6.6 mg/kg, read-out: Tmax) is 15 min. Moreover, the clearance in data set [1] (male, Sprague-Dawley, plasma) was found to be 19 mL/min/kg. In addition, in data set [1] (male, Sprague-Dawley, plasma), the Vd amounted to 0.1 L/kg. Further, in data set [2] (dogs), the “clinical signs, body weight and food consumption” value was “Other than emesis, there were no clinical signs observed, and there were no effects on body weight and food consumption”. The emesis entry in data set [2] (dogs) is given as “emesis (white, streaked with red that contained capsule remnants) was observed at about 0.5-1.25 hours after dosing in all dogs given ≧92 mg/kg QD; also recorded: emesis (white or brown) was observed within 2 hours after dosing in all dogs given ≧46 mg/kg BID”. In the data set “in vitro”, the half-life at 15 μM amounted to 704 min. In addition, the C24 h result in data set [3] (male rats, single oral dose Ibb 19 mg/kg (IVb molar equiv. 15 mg/kg)) is recorded as “<LLQ”; in data set [3] (male rats, single oral dose Ibb 64 mg/kg (IVb molar equiv. 51 mg/kg)) it was “<LLQ”; in data set [3] (male rats, single oral dose Ibb 236 mg/kg (IVb molar equiv. 190 mg/kg)), “<LLQ”. In addition, the AUC in data set [3] (male, Sprague Dawley, rat, po, 19 mg/kg, read-out: AUC from zero to last time point) amounted to 0.03 µM·h; in data set [3] (male, Sprague Dawley, rat, po, 64 mg/kg, read-out: AUC from zero to last time point), 0.18 µM·h; in data set [3] (male, Sprague Dawley, rat, po, 236 mg/kg, read-out: AUC from zero to last time point), 0.49 µM·h.

For the compound `COc1cnc(OC)c2c1c(C(=O)C(=O)N1CCN(C(=O)c3ccccc3)CC1)cn2COP(=O)(O)O` [Iab, {3-[(4-benzoylpiperazin-1-yl)(oxo)acetyl]-4,7-dimethoxy-1H-pyrrolo[2,3-c]pyridin-1-yl}methyl dihydrogen phosphate, L-lysine salt (1:1)], the AUC was 3.3 ± 1 µM·h in data set [1] (male, Sprague-Dawley, plasma, after IV prodrug (~1 mg/kg parent equivalent), analyte = label, read-out: AUCtot (μM·hr), IV); 0.057 µM·h in data set [3] (CD, rat, male rats, Iab 267 mg/kg PO, AUC from zero to time of last quantifiable sample, read-out: AUC); 0.02 µM·h in data set [3] (male, CD, rat, po, 16 mg/kg, read-out: AUC); 0.049 µM·h in data set [3] (male, CD, rat, po, 72 mg/kg, read-out: AUC). In addition, the half-life was 0.16 h in data set [1] (setting [4]); 38.4 min in data set [3] (CD, rat, male rats, Iab 16 mg/kg PO, analyte = label, read-out: T½ (converted)); 22.2 min in data set [3] (CD, rat, male rats, Iab 72 mg/kg PO, analyte = label, read-out: T½ (converted)); 2.7 min in data set [3] (CD, rat, male rats, Iab 267 mg/kg PO, analyte = label, read-out: T½ (converted)). The clearance in data set [1] (male, Sprague-Dawley, plasma) worked out at 14 mL/min/kg. For the same compound, in data set [1] (male, Sprague-Dawley, plasma), the Vd was found to be 0.12 L/kg. In addition, the figures for the “percentage of estimated total dose lost in vomit” value in data set [2] (Dog #1201 (90 mg/kg Iab)), in data set [2] (Dog #2201 (240 mg/kg Iab)) and in data set [2] (Dog #2202 (240 mg/kg Iab)) were under 1%, “≈ 90%” and “≈ 9%”, respectively. In addition, the “clinical signs, body weight and food consumption” value in data set [2] (dogs) was “Other than emesis, there were no clinical signs observed, and there no effects on body weight and food consumption”. In addition, the emesis result in data set [2] (dogs) is “Emesis was observed at about 30 minutes after dosing in both dogs given 90 mg/kg; also recorded: Emesis was observed in Dogs #1201, #2201, and #2202 about 1 hour after dosing”. Also, the concentration at 1 h in data set [2] (female, dog, plasma, oral, dogs, 1 hour post dose, Iab 90-240 mg/kg phase, read-out: prodrug detected in plasma) fell in the range of 5 to 49 nM. The concentration at 2 h in data set [2] (female, dog, plasma, oral, dogs, 2 hours post dose, Iab 90-240 mg/kg phase, read-out: prodrug detected in plasma) is 5 to 6 nM. Besides, the “prodrug in the plasma samples” value in data set [2] (initial phase, Iab 24 or 90 mg/kg) was “not detected”. In addition, the half-life at 10 μM in “in vitro” came to 80 min. The Cmax in data set [3] (CD, rat, male rats, single oral dose Iab 16 mg/kg (13 mg/kg IVa molar equiv.), water, analyte = label) is 68 nM; in data set [3] (CD, rat, male rats, single oral dose Iab 72 mg/kg (57 IVa equiv.), analyte = label), 95 nM; in data set [3] (CD, rat, male rats, single oral dose Iab 267 mg/kg (211 IVa equiv.), analyte = label), 110 nM. Also, the “C24 h (μM)” value was “<LLQ^1” in data set [3] (male rats, Iab 16 mg/kg PO, analyte = label); “<LLQ” in data set [3] (male rats, Iab 72 mg/kg PO, analyte = label); “<LLQ” in data set [3] (male rats, Iab 267 mg/kg PO, analyte = label). In addition, the “plasma AUC of the prodrug relative to that of the parent” value in data set [3] (rats, single oral dose of Iab) is reported as at most 0.03%.

For `COc1cnc(-n2cnc(C)n2)c2c1c(C(=O)C(=O)N1CCN(C(=O)c3ccccc3)CC1)cn2COP(=O)(O)O` [Icb, [3-[(4-benzoylpiperazin-1-yl)(oxo)acetyl]-4-methoxy-7-(3-methyl-1H-1,2,4-triazol-1-yl)-1H-pyrrolo[2,3-c]pyridin-1-yl]methyl dihydrogen phosphate, 2-amino-2-(hydroxymethyl)propane-1,3-diol salt (1:1)], the T1/2 in data set [1] (male, Sprague-Dawley, in vivo, iv, […]) came to 5.04 ± 0.72 min. Also, in data set [2] (both, dog, in vivo), the “Emesis (footnote 4)” value is on record as “^4Emesis observed within 2 hours of dosing with capsule remnant present”, the “Emesis (footnote 5)” value was “^5Emesis observed within 2 hours of dosing with no capsule remnant” and the “levels of prodrug detected in some plasma samples” value is at most 100 nM. This compound had a half-life at 10 μM in “in vitro” of 42 min. Further, the “prodrug concentrations in plasma” value in data set [3] (male, CD, rat, in vivo, 200 mg/kg) is 0.02 to 0.04 µM. The prodrug in plasma entry in data set [3] (rat, in vivo, 25 mg/kg) is on record as “not detected”.

(Values after patent US20150315218A1, “SALTS OF PRODRUGS OF PIPERAZINE AND SUBSTITUTED PIPERIDINE ANTIVIRAL AGENTS” (Bristol-Myers Squibb Company, priority 2004, published 2015).)
